Assay results as given in publication PMC4000071 (Journal of Toxicologic Pathology, 2014).
Where two headings read alike, the source gives them in different places.

Experiments:
rats = conditions: cited from earlier work
dogs = conditions: cited from earlier work
phospholipidosis (PLD) = experiment: in vitro PLD screen; assay type: cell-based; conditions: read-out: EC50 (phospholipogenic, in vitro)

CN(C)CCCC1(c2ccc(F)cc2)OCc2cc(C#N)ccc21 (stereo not drawn) [citalopram]
PLD in nervous tissues (rats): caused PLD in 1 sympathetic ganglion, none or very weak PLD in retinal and trigeminal ganglia, and hypothalamic neurosecretory perikarya
PLD (dogs): did not cause PLD

CC[C@@H]([C@H](C)O)n1ncn(-c2ccc(N3CCN(c4ccc(OC[C@@H]5CO[C@@](Cn6cncn6)(c6ccc(F)cc6F)C5)cc4)CC3)cc2)c1=O [posaconazole]
PLD (dogs; chronic administration): caused PLD in DRG and medulla oblongata neurons in the brain
neuronal degeneration or necrosis (dogs; chronic administration): no evidence of neuronal degeneration or necrosis

CCCCc1oc2ccccc2c1C(=O)c1cc(I)c(OCCN(CC)CC)c(I)c1 [amiodarone]
corneal microdeposits (incidence) (dogs; after 6 weeks): 1 of 6
alteration in the retina or optic nerve (dogs; after 11 weeks of dosing): did not cause any alteration in the retina or optic nerve

CN(C)CCCN1c2ccccc2CCc2ccccc21 [imipramine]
PLD in nervous tissues (rats): caused PLD in retina and DRG

C1CCC(C(CC2CCCCN2)C2CCCCC2)CC1 (stereo not drawn) [perhexiline]
EC50 (phospholipidosis (PLD)): < 20 µM

CCN(CC)CCCC(C)Nc1ccnc2cc(Cl)ccc12 (stereo not drawn) [chloroquine]
EC50 (phospholipidosis (PLD)): < 20 µM

CNCCC(Oc1ccc(C(F)(F)F)cc1)c1ccccc1 (stereo not drawn) [fluoxetine]
PLD in nervous tissues (rats): caused PLD in retinas
PLD-like vacuolation in nerve cells (rats): PLD-like vacuolation in nerve cells in the thalamus, cerebellum, spinal cord and ganglion
neuronal degeneration or neurological findings (dogs; after 1 year of dosing): no neuronal degeneration or neurological findings were observed
